Key:
Pseudomonas aeruginosa [1] = assay: Inhibition of IMP-1 in mexAB-deficient Pseudomonas aeruginosa KG5002/pMS363 assessed as MIC of BIPM at 50 ug/ml by microbroth dilution method
[2] = Inhibition of carbapenems-resistant Pseudomonas aeruginosa PAO1/pMS363 IMP-1 using nitrocefin as substrate after 20 mins by spectrophotometric analysis
Pseudomonas aeruginosa [3] = assay: Inhibition of IMP-1 in Pseudomonas aeruginosa PAO1/pMS363 assessed as MIC of BIPM at 50 ug/ml by microbroth dilution method

Compound	MIC (Pseudomonas aeruginosa [1])	IC50 [2]	MIC (Pseudomonas aeruginosa [3])
O=C(O)c1cccc(N2CCC(O)CC2)c1C(=O)O	< 0.25 µg/mL	2700 nM	1 µg/mL
O=C(O)c1c(N2CCC(O)CC2)ccc(N2CCC(O)CC2)c1C(=O)O	< 0.25 µg/mL	270 nM	0.5 µg/mL
O=C(O)c1c(F)ccc(N2CCC(O)CC2)c1C(=O)O	1 µg/mL	17500 nM	2 µg/mL
Cc1ccc(N2CCC(O)CC2)c(C(=O)O)c1C(=O)O	< 0.25 µg/mL	700 nM	1 µg/mL
CN(C)c1ccc(N2CCC(O)CC2)c(C(=O)O)c1C(=O)O	< 0.25 µg/mL	4100 nM	1 µg/mL

Source: ChEMBL document CHEMBL3352464, “X-ray crystallographic analysis of IMP-1 metallo-β-lactamase complexed with a 3-aminophthalic acid derivative, structure-based drug design, and synthesis of 3,6-disubstituted phthalic acid derivative inhibitors” (Bioorg Med Chem Lett, 2014)
